The supplement of paper PMC10307832

What was measured:
Assay in all cases: relative viability (nuclei count vs DMSO), 5 days (fraction); higher = more cells survive
FG-4592 + Dasatinib = compound: Cc1nc(C(=O)NCC(=O)O)c(O)c2ccc(Oc3ccccc3)cc12 [FG-4592] + Cc1nc(Nc2ncc(C(=O)Nc3c(C)cccc3Cl)s2)cc(N2CCN(CCO)CC2)n1 [Dasatinib] (partner 0.075 µM)
Summary of the method: (§1)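 Five library-drug doses in √10 steps were combined with a fixed anchor-drug dose, or a single drug was given alone, by pin tool to lung cancer cell lines in 1536-well plates the day after seeding. Nuclei were stained and counted after 5 days. Relative viability is the nuclei count in treated wells over that in vehicle wells, taken as the median of duplicate plates.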

FG-4592 + Decitabine = compound: Cc1nc(C(=O)NCC(=O)O)c(O)c2ccc(Oc3ccccc3)cc12 [FG-4592] + Nc1ncn([C@H]2C[C@H](O)[C@@H](CO)O2)c(=O)n1 [Decitabine] (partner 2 µM)
Summary of the method: as §1

FG-4592 + Vorinostat = compound: Cc1nc(C(=O)NCC(=O)O)c(O)c2ccc(Oc3ccccc3)cc12 [FG-4592] + O=C(CCCCCCC(=O)Nc1ccccc1)NO [Vorinostat] (partner 1 µM)
Summary of the method: as §1

IU1-47 + Vorinostat = compound: CC1=CC(=C(N1C2=CC=C(C=C2)Cl)C)C(=O)CN3CCCCC3 [IU1-47] + O=C(CCCCCCC(=O)Nc1ccccc1)NO [Vorinostat] (partner 1 µM)
Summary of the method: as §1

| Cell Line | relative viability (FG-4592 + Dasatinib; first compound 0.08 µM) | relative viability (FG-4592 + Dasatinib; first compound 0.253 µM) | relative viability (FG-4592 + Dasatinib; first compound 0.8 µM) | relative viability (FG-4592 + Dasatinib; first compound 2.53 µM) | relative viability (FG-4592 + Dasatinib; first compound 8 µM) | relative viability (FG-4592 + Decitabine; first compound 0.08 µM) | relative viability (FG-4592 + Decitabine; first compound 0.253 µM) | relative viability (FG-4592 + Decitabine; first compound 0.8 µM) | relative viability (FG-4592 + Decitabine; first compound 2.53 µM) | relative viability (FG-4592 + Decitabine; first compound 8 µM) | relative viability (FG-4592 + Vorinostat; first compound 0.08 µM) | relative viability (FG-4592 + Vorinostat; first compound 0.253 µM) | relative viability (FG-4592 + Vorinostat; first compound 0.8 µM) | relative viability (FG-4592 + Vorinostat; first compound 2.53 µM) | relative viability (FG-4592 + Vorinostat; first compound 8 µM) | relative viability (IU1-47 + Vorinostat; first compound 0.08 µM) | relative viability (IU1-47 + Vorinostat; first compound 0.253 µM) | relative viability (IU1-47 + Vorinostat; first compound 0.8 µM) | relative viability (IU1-47 + Vorinostat; first compound 2.53 µM) | relative viability (IU1-47 + Vorinostat; first compound 8 µM) |
| --- | --- | --- | --- | --- | --- | --- | --- | --- | --- | --- | --- | --- | --- | --- | --- | --- | --- | --- | --- | --- |
| NCI-H1734 | 0.409 | 0.465 | 0.444 | 0.454 | 0.401 | 0.519 | 0.463 | 0.53 | 0.489 | 0.458 | 0.762 | 0.802 | 0.616 | 0.713 | 0.852 | 0.902 | 0.859 | 0.778 | 0.542 | 0.816 |
| HOP-62 | 0.637 | 0.569 | 0.567 | 0.642 | 0.628 | 0.216 | 0.219 | 0.223 | 0.199 | 0.185 | 0.61 | 0.686 | 0.451 | 0.486 | 0.816 | 0.693 | 0.675 | 0.752 | 0.433 | 0.532 |
| LOU-NH91 | 0.554 | 0.521 | 0.512 | 0.559 | 0.533 | 0.861 | 0.802 | 0.814 | 0.802 | 0.812 | 0.993 | 0.86 | 0.817 | 0.866 | 0.95 | 1.09 | 1.04 | 0.912 | 1.04 | 0.82 |
| ChaGo-K-1 | 0.584 | 0.577 | 0.516 | 0.542 | 0.592 | 0.508 | 0.427 | 0.509 | 0.493 | 0.466 | 0.694 | 0.819 | 0.687 | 0.758 | 0.693 | 0.835 | 0.766 | 0.806 | 0.623 | 0.717 |
| PC-14 | 0.274 | 0.195 | 0.275 | 0.311 | 0.343 | 0.193 | 0.243 | 0.213 | 0.195 | 0.226 | 0.785 | 0.738 | 0.814 | 0.694 | 0.615 | 0.757 | 0.756 | 0.734 | 0.49 | 0.573 |
| NCI-H1437 | 0.409 | 0.309 | 0.335 | 0.392 | 0.345 | 0.576 | 0.512 | 0.606 | 0.632 | 0.534 | 0.751 | 0.786 | 0.912 | 0.894 | 0.722 | 0.807 | 0.801 | 0.81 | 0.735 | 0.801 |
| NCI-H460 | 0.527 | 0.511 | 0.43 | 0.457 | 0.368 | 0.448 | 0.461 | 0.51 | 0.482 | 0.51 | 0.707 | 0.691 | 0.771 | 0.748 | 0.755 | 0.766 | 0.724 | 1.05 | 0.819 | 0.801 |
| NCI-H1666 | 0.812 | 0.792 | 0.801 | 0.794 | 0.808 | 0.836 | 0.724 | 0.867 | 0.711 | 0.759 | 1.02 | 0.932 | 0.954 | 1.08 | 1.03 | 0.961 | 0.984 | 1.08 | 1.1 | 1.03 |
| NCI-H1651 | 0.416 | 0.439 | 0.356 | 0.325 | 0.367 | 0.713 | 0.603 | 0.703 | 0.668 | 0.499 | 0.597 | 0.596 | 0.546 | 0.469 | 0.538 | 0.559 | 0.558 | 0.556 | 0.531 | 0.495 |
| NCI-H1755 | 0.416 | 0.435 | 0.34 | 0.45 | 0.406 | 0.697 | 0.773 | 0.736 | 0.679 | 0.689 | 0.694 | 0.761 | 0.472 | 0.69 | 0.747 | 0.82 | 0.895 | 0.799 | 0.828 | 0.668 |
| NCI-H661 | 0.983 | 0.825 | 0.874 | 0.827 | 0.835 | 0.526 | 0.469 | 0.563 | 0.535 | 0.484 | 0.778 | 0.827 | 0.832 | 0.755 | 0.839 | 0.805 | 0.861 | 0.798 | 0.836 | 0.761 |
| HARA | 0.272 | 0.208 | 0.266 | 0.24 | 0.234 |  |  |  | 0.676 | 0.559 | 0.554 | 0.556 | 0.507 | 0.662 | 0.607 | 0.421 | 0.679 | 0.646 | 0.575 | 0.479 |
| NCI-H596 | 0.573 | 0.736 | 0.418 | 0.537 | 0.562 | 0.92 | 1.01 |  | 0.897 | 0.8 | 0.441 | 0.507 |  | 0.637 | 0.584 | 0.715 |  | 0.662 | 0.658 | 0.587 |
| NCI-H23 | 0.841 | 0.669 | 0.706 | 0.694 | 0.862 | 0.322 | 0.268 | 0.334 | 0.265 | 0.267 | 0.484 | 0.451 | 0.415 | 0.507 | 0.634 | 0.661 |  | 0.653 | 0.666 | 0.622 |
